Experimental data published in patent publication US20240025946A1, “Cyclic Tetrapeptides and Metal Complexes Thereof” (priority 2020, published 2024).
Numbered stars: 1 amine (or outer) side, 2 acyl side, 3 side chain; on linkers, the order of the positions; unused ones are H or OH. Square brackets hold non-standard residues; d marks the D form. Ends that are not written are not given here. SAsp = aspartic acid substituted by -SH; βAsp = O=C(O)[C@H](CC(=O)[*:2])N[*:1]; β3hE = N[C@@H](CCC(=O)O)CC(=O)O; βAla = NCCC(=O)O

What was measured:
HT-29 cells [1] = assay: In vitro recovery test: Pb detoxification of poisoned human cells, crystal violet; assay type: cell-based; details: for effect of the counter cation (Ca vs. Na salt) on detoxification activity: HT-29, FIG. 2d; for Recovery HT-29 (%): highest concentration 10 mM (5 equiv.), vs poisoned untreated cells, mean, SD
Description: (§1) Desalted peptides were then assessed for their ability to detoxify Pb (FIGS. 2a-d). The inventors designed two assays for rapid and reliable screening of potential CAs both in vivo on bacteria and then in vitro on human cell culture. Briefly, DH5a or HT-29 cells were first exposed to Pb(NO3)2 slightly below the minimal inhibitory concentration and then treated with various concentrations of the investigated CA, ranging from 0.1 to 10 equivalents. The viability of the cells was determined by colony counting or by crystal violet (Feoktistova et al, 2016), for the bacteria and the human cells, respectively, and was compared to poisoned cells that were not treated with any CA as the negative control. […] On the other hand, testing the compounds on human cells cannot be performed with insoluble compounds but is more relevant for medicinal purposes.
96-well plates were prepared such that every well contains 10,000 cells in 100 μL medium, and the cells were allowed to adhere overnight. To all wells but the positive control, 10 μL of 22 mM Pb(NO3)2 were added (final concentration 2 mM). 10 μL of H2O was added to the positive control wells. 60 min after addition of metal, 10 μL of each solution of the examined CA (2.4, 6, 12, 24, 48, and 120 mM) were added to reach final concentrations of 0.2, 0.5, 1, 2, 4, and 10 mM (which are 0.1, 0.25, 0.5, 1, 2, and 5 equivalents, respectively). To the positive control wells containing no metal and the negative control wells containing metal but no CA, 10 μL of H2O were added. Each condition was performed in triplicates. The plates were incubated at 37° C. and 5% CO2 for an additional 23 h, after which the medium was removed, washed with fresh medium and 50 μL of crystal violet solution (0.5% crystal violet powder in 20 mL MeOH and 80 mL H2O) to each well and the plates were gently shaken (60 rpm) for 20 min. The plates were then washed with H2O until no more unbound dye was observed and allowed to dry overnight. 200 μL of MeOH were added to each well, and the plates were gently shaken (60 rpm) for 20 min, after which their absorbance at 560 nm was read with a plate reader. The recovery of each concentration of CA was calculated according to equation 2:
(§2) A[CAx]—absorbance of the pre-toxified well in the presence of X mM of CA
(§3) A[blank]—absorbance of blank wells (contain nothing)
A[NEG]—absorbance of the pre-toxified well that contains no CA
(§4) Each experiment was performed on three independent occasions. Values are mean±SD of >3 repeats each performed in triplicate.

DH5α E. coli = assay: In vivo recovery test: Pb detoxification of poisoned bacteria, colony counting; assay type: cell-based; details: for Recovery DH5α (%): highest concentration 120 mM (10 equiv.), Pb(NO3)2 12 mM, vs poisoned untreated cells, mean; for detoxification ability in poisoned E. coli (in words): compared to the benchmark compounds, FIG. 2a
Description: as §1
HRMS (ESI) m/z calculated for C16H26N4O4SNa^+ [M+Na]^+ 427.14442; found: 427.14447 In vivo recovery tests A single colony of DH5a E. coli WT cells was grown overnight at 37° C. and 220 rpm in Tris Minimal Medium (TMM, pH 6.0; 5 mL) without antibiotics. The culture was then diluted to an OD600 of 0.03 with additional TMM to a total volume of 5 mL, and its OD600 was monitored. Upon cell density of 0.25 (which was achieved after 3-5 h), 1 mL of the culture was transferred into a cell culture tube and was labeled as the positive control. To additional 3 mL of the culture, 36 μL of Pb(NO3)2 1 M were added (final concentration of 12 mM). Both cultures were shaken at 37° C. and 220 rpm for an additional 5 h.
Aqueous stock solutions of each CA were plated on freshly prepared agar-LB plates such that the final concentration of each compound is equal to 0.5, 1, 2, 5, and 10 equivalents, compared to the amount of Pb(NO3)2 in 50 μL pre-toxified culture. The stock solutions were prepared such that plating and equally spreading 30 μL of each solution will provide the desired amount of CA. To additional two plates, 30 μL of H2O was added.
50 μL of the pre-toxified culture were homogenously spread to each CA-containing plate, 5 h after adding the metal to the culture. The Pb-containing culture was also plated on one of the two H2O-containing plates and was labeled as the negative control. Lastly, 50 μL of the non-toxified culture were platted on the second H2O-containing plate and was labeled as positive control. All plates (positive and negative control and five plates for each examined compound) were then incubated at 37° C. overnight. The plates were then imaged, and the colonies were counted (with Vilber Quantum Visualization System). The recovery of each concentration of CA was calculated according to equation 1: […]
#CAx—number of colonies of pre-toxified culture in a plate containing X mM of CA
#NEG—number of colonies of pre-toxified culture in a plate containing no CA
as §4

HT-29 cells [2] = assay: In vitro toxicity test, crystal violet; assay type: cell-based, human; details: HT-29, 24 h; for IC50: concentration at 50% viability, mean (SD), n.d. = not detected as it is too high
Description: 96-well plates were prepared such that every well contains 10,000 cells in 100 μL medium, and the cells were allowed to adhere overnight.
To all wells but the positive control, 10 μL of each solution of the examined CA (2.4, 6, 12, 24, 48, and 120 mM) were added to reach final concentrations of 0.2, 0.5, 1, 2, 4, and 10 mM. To the positive control wells, 10 μL of H2O was added. Each condition was performed in triplicates. The plates were incubated at 37° C. and 5% CO2 for 24 h, after which the medium was removed, washed with fresh medium and 50 μL of crystal violet solution (0.5% crystal violet powder in 20 mL MeOH and 80 mL H2O) to each well and the plates were gently shaken (60 rpm) for 20 min. The plates were then washed with H2O until no more unbound dye was observed and allowed to dry overnight. 200 μL of MeOH were added to each well, and the plates were gently shaken (60 rpm) for 20 min, after which their absorbance at 560 nm was read with a plate reader. The toxicity of each concentration of CA was calculated according to equation 3:
as §2, §3
A[POS]—absorbance of well that contains no CA
as §4

[3] = Aqueous solubility of the peptides; assay type: physicochemical
Excerpt: Attempts to solubilize them, including in different pH conditions, formulation with PEG or co-solvent systems with DMSO failed. Therefore, two analogs of 1 where βAla is substituted by PAsp or PhGlu, to form peptides 1a and 1b, respectively, were synthesized. […] Their low activity might be related to either (a) competition in coordination with Pb^2+ by the two carboxylates, which destabilizes the complexation, or (b) a decrease in their metal selectivity and coordination alkali or alkaline earth metal ions.

male mice (C57BL/6) = assay: Pb-poisoned mice: blood lead level and urinary Pb by ICP-MS; assay type: in vivo; details: for BLL / Urinary Pb (ppm): 30 mg kg^−1 day^−1, days 10-16; for BLL: blood on day 18, eight mice; for Urinary Pb (ppm): urine on day 18
Description: Peptide 8a was then tested in mice. 40 male mice (C57BL/6) aged 6-8 weeks were provided with 20 mM Pb(OAc)2 solution as the sole water supply for seven days (days 1-7). This poisoning route mimics chronic exposure in humans. Two days after returning to clean water (day 9), they were randomly divided into five groups of eight mice. They received a single treatment per day for seven days (days 10-16) of either CaNa2EDTA, DMSA, or 8a at a concentration of 30 mg kg^−1 except for group 1 that served as the negative control (Table 3).
Blood samples (100 μL) were collected before dosing the mice on days 10-15 and on day 18, which is two days after the last dosing and the day by which the experiment was terminated. Urine was also collected from 34 animals on day 18 and was kept frozen until analysis.

[4] = inhibition at the highest concentration (10 mM), mean, SD
[5] = also different pH, PEG formulation, DMSO co-solvent failed
[6] = soluble^b = with the addition of 2 equiv. NaOH or 1 equiv. of Ca(OH)2

Row | Compound | Recovery DH5α (%) (DH5α E. coli) | Recovery HT-29 (%) (HT-29 cells [1]; Pb(NO3)2 2 mM) | Toxicity Maximal inhibition (%) (HT-29 cells [2]; [4]) | detoxification ability in poisoned E. coli (in words) (DH5α E. coli) | Aqueous solubility [3, 6] | further results
1 | O=C(O)CN(CCN(CC(=O)O)CC(=O)O)CC(=O)O [EDTA, ethylenediaminetetraacetic acid] |  |  |  |  |  | effect of the counter cation (Ca vs. Na salt) on detoxification activity (HT-29 cells [1]): higher activity as a Ca-salt
2 | N[C@@H](CCC(=O)N[C@@H](CS)C(=O)NCC(=O)O)C(=O)O [GSH, glutathione] | 39% | 126% |  |  |  | IC50 (HT-29 cells [2]; Homo sapiens): 9.6 mM; inhibition at 10000 µM (HT-29 cells [2]; Homo sapiens, inhibition at the highest concentration (10 mM), mean, SD, read-out: Toxicity Maximal inhibition (%)): 57%
3 | O=C([O-])CN(CCN(CC(=O)[O-])CC(=O)O)CC(=O)O.[Na+].[Na+] [Na2EDTA] | 107% | 41% | 72% |  |  | IC50 (HT-29 cells [2]): 0.6 mM
4 | O=C1CCNC(=O)[C@H](CS)NC(=O)CCNC(=O)[C@H](CS)N1 [compound 1, Cys-βAla-Cys-βAla] |  |  |  | outstanding results | insoluble | increase of recovery of poisoned E. coli (DH5α E. coli; DH5α, treatment after Pb(NO3)2): more than 8 fold; Aqueous solubility [3, 5]: low aqueous solubility
5 | CSCC[C@@H]1NC(=O)CCNC(=O)[C@H](CCSC)NC(=O)CCNC1=O [compound 3, Met-βAla-Met-βAla] | 139% |  |  |  | insoluble | 
6 | O=C1CCNC(=O)[C@H](Cc2c[nH]cn2)NC(=O)CCNC(=O)[C@H](Cc2c[nH]cn2)N1 [compound 4, His-βAla-His-βAla] | 80% | 106% | 62% |  | Soluble | IC50 (HT-29 cells [2]): 5.8 mM
7 | O=C(O)C[C@@H]1NC(=O)CCNC(=O)[C@H](CC(=O)O)NC(=O)CCNC1=O [compound 5, Asp-βAla-Asp-βAla] | 150% | 121% | 44% |  | soluble^b | 
8 | CSCC[C@@H]1NC(=O)CCNC(=O)[C@H](CS)NC(=O)CCNC1=O [compound 6, Cys-βAla-Met-βAla] |  |  |  | outstanding results | insoluble | Aqueous solubility [3, 5]: low aqueous solubility
9 | O=C1CCNC(=O)[C@H](Cc2c[nH]cn2)NC(=O)CCNC(=O)[C@H](CS)N1 [compound 7, Cys-βAla-His-βAla] | 47% |  |  |  | insoluble | 
10 | O=C1CCNC(=O)[C@H](Cc2ccccc2)NC(=O)CCNC(=O)[C@H](CS)N1 [compound 9, Cys-βAla-Phe-βAla] | 180% |  |  |  | insoluble | 
11 | O=C1CCNC(=O)[C@@H](CS)NC(=O)CCNC(=O)[C@H](CS)N1 [peptide 2, Cys-βAla-DCys-βAla] |  |  |  | outstanding results | insoluble | Aqueous solubility [3, 5]: low aqueous solubility
12 | C[βAsp]C[βAsp] (cysteine pairing not given here) [1a] | 2% | 106% | 0% | unsatisfied | soluble^b | solubility as Na or Ca salts [3]: high solubility
13 | [Cys-βhGlu]2 (C[β3hE]C[β3hE]; not fully specified (bridges); printed as [Cys-βhGlu]2; also: cyclic, ring type not given here) [1b, cyclic tetrapeptide] | 30% |  |  | unsatisfied | soluble^b | solubility as Na or Ca salts [3]: high solubility
14 | cyc-[SAsp-βAla-Asp-βAla] (cyclo([SAsp][βAla]D[βAla])) [8a] |  |  |  |  |  | removal of Pb in urine compared with the SOCs (male mice (C57BL/6); IV and oral, vs CaNa2EDTA and DMSA, day 18): 1.3-2.2 folds; BLL (male mice (C57BL/6); IV): 16.0 ± 1.5 µg/dL; Urinary Pb (ppm) (male mice (C57BL/6); IV): 452 ± 47 ppm; Pb expelled in urine compared with the untreated group (male mice (C57BL/6); IV, day 18): 2.9 folds; reduction of average BLL compared to no treatment (male mice (C57BL/6); IV, day 18): 2.1 folds; reduction of average BLL compared with CaNa2EDTA (male mice (C57BL/6); IV, day 18): 1.6 folds; BLL (male mice (C57BL/6); Oral): 17.7 ± 1.3 µg/dL; Urinary Pb (ppm) (male mice (C57BL/6); Oral): 435 ± 28 ppm; Pb expelled in urine compared with the untreated group (male mice (C57BL/6); oral, day 18): 2.8 folds; reduction of BLL compared with DMSA (male mice (C57BL/6); oral, day 18): 1.3 folds; reduction of BLL compared with no treatment (male mice (C57BL/6); oral, day 18): 1.9 folds; dose-dependent recovery of HT-29 cells (in words) (HT-29 cells [1]; Pb(NO3)2 2 mM, CA added 1 h later, vs all investigated peptides and standards of care, FIG. 4): best results
15 | cyc[Cys-βAla-Asp-βAla] [peptide 8] | 279% |  | 15±5% | outstanding results | soluble^b | effect of the counter cation (Ca vs. Na salt) on detoxification activity (HT-29 cells [1]): barely affected by the counter cation
